Data on 3 molecules can be found in publication PMC3446762 (Viruses, 2012).

One data set has as its system EBOV. The following applies: 20 µM; cited from earlier work.
The next data set relates to host cells. To be noted: cited from earlier work.
The next data set relates to EBOV Zaire-95 isolate. It counts as cell-based, Ebola (EBOV).
Another data set has as its system MARV Ci67 isolate. It is filed as cell-based, Marburg (MARV).
Data set [1] relates to HeLa cells. The following applies: human.
Data set [2] relates to HeLa cells. To be noted: human. The source holds these as a separate data set.

Turning to `Cc1cc(NCCN2CCOCC2)c2c(ccc3c2ccc2nc(C)cc(NCCN4CCOCC4)c23)n1` [Compound 1], in the data set on EBOV, the EBOV inhibition is reported as 53%. Besides, the “toxicity to host cells” value in the data set with host cells is listed as “non-toxic to host cells”.

For `CCN(CC)CCCNc1cc(C)nc2ccc3c(ccc4nc(C)cc(NCCCN(CC)CC)c43)c12` [Compound 2], the EBOV inhibition in the data set on EBOV was 13%. Further, the “toxicity to host cells” value with host cells is reported as “toxic to host cells”.

For `CCN(CC)CCCNc1ccnc2ccc3c(ccc4nccc(NCCCN(CC)CC)c43)c12` [Compound 4], in the data set with EBOV Zaire-95 isolate, the “cellular protection during EBOV infection” value is listed as 100%. The “cellular protection during MARV infection” value in the data set with MARV Ci67 isolate was determined as 100%. Also, in the data set on HeLa cells [1], the “cellular toxicity (reduction in cell number), EBOV assay” value was 80–90%. Further, in the data set on HeLa cells [2], the “cellular toxicity (reduction in cell number), MARV assay” value is reported as 80–90%.
